# According to PubChem BioAssay (NCI):
# Where “and” joins values, the source holds several entries; their conditions need not be identical. Equal values may be shown once.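 Results reflect a 48-hour exposure of cells in 96-well plates to compound at five concentrations. GI50 = concentration required for 50% inhibition of growth. Definition used: TGI = concentration required for complete inhibition of growth.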
# How the values were obtained:
# Assay in all cases: NCI tumour cell line growth inhibition, 48 h
# A498 renal = system: A498 renal
# A549 NSCLC = system: A549 NSCLC
# ACHN renal = system: ACHN renal
# BT-549 breast = system: BT-549 breast
# CAKI-1 renal = system: CAKI-1 renal
# CCRF-CEM leukemia = system: CCRF-CEM leukemia
# COLO 205 colon = system: COLO 205 colon
# EKVX NSCLC = system: EKVX NSCLC
# HCC-2998 colon = system: HCC-2998 colon
# HCT-15 colon = system: HCT-15 colon
# HL-60(TB) leukemia = system: HL-60(TB) leukemia
# HOP-62 NSCLC = system: HOP-62 NSCLC
# HOP-92 NSCLC = system: HOP-92 NSCLC
# HS 578T breast = system: HS 578T breast
# IGROV1 ovarian = system: IGROV1 ovarian
# KM12 colon = system: KM12 colon
# MALME-3M melanoma = system: MALME-3M melanoma
# MCF7 breast = system: MCF7 breast
# MDA-MB-231 breast = system: MDA-MB-231 breast
# MDA-MB-435 = system: MDA-MB-435
# MDA-N = system: MDA-N
# MOLT-4 leukemia = system: MOLT-4 leukemia
# NCI-H226 lung = system: NCI-H226 lung
# NCI-H23 lung = system: NCI-H23 lung
# NCI-H522 lung = system: NCI-H522 lung
# NCI/ADR-RES ovarian = system: NCI/ADR-RES ovarian
# OVCAR-5 ovarian = system: OVCAR-5 ovarian
# OVCAR-8 ovarian = system: OVCAR-8 ovarian
# PC-3 prostate = system: PC-3 prostate
# RPMI-8226 leukemia = system: RPMI-8226 leukemia
# RXF 393 renal = system: RXF 393 renal
# SF-295 CNS = system: SF-295 CNS
# SF-539 CNS = system: SF-539 CNS
# SK-MEL-2 melanoma = system: SK-MEL-2 melanoma
# SK-MEL-28 melanoma = system: SK-MEL-28 melanoma
# SK-MEL-5 melanoma = system: SK-MEL-5 melanoma
# SK-OV-3 ovarian = system: SK-OV-3 ovarian
# SN12C renal = system: SN12C renal
# SNB-19 CNS = system: SNB-19 CNS
# SNB-75 CNS = system: SNB-75 CNS
# SW-620 colon = system: SW-620 colon
# T-47D breast = system: T-47D breast
# TK-10 renal = system: TK-10 renal
# UACC-257 melanoma = system: UACC-257 melanoma
# UO-31 renal = system: UO-31 renal
# 786-0 renal = system: 786-0 renal
# DU-145 prostate = system: DU-145 prostate
# HCT-116 colon = system: HCT-116 colon
# HT29 colon = system: HT29 colon
# K-562 leukemia = system: K-562 leukemia
# LOX IMVI melanoma = system: LOX IMVI melanoma
# M14 melanoma = system: M14 melanoma
# NCI-H460 lung = system: NCI-H460 lung
# OVCAR-3 ovarian = system: OVCAR-3 ovarian
# OVCAR-4 ovarian = system: OVCAR-4 ovarian
# SF-268 CNS = system: SF-268 CNS
# U251 CNS = system: U251 CNS
# UACC-62 melanoma = system: UACC-62 melanoma
smiles,measurement,setting,value
Cc1ccc(C(=O)NC2C(=O)NC(C(C)C)C(=O)N3CCCC3C(=O)N(C)CC(=O)N(C)C(C(C)C)C(=O)OC2C)c2c1Oc1c(c(C(=O)NC3C(=O)NC(C(C)C)C(=O)N4CCCC4C(=O)N(C)CC(=O)N(C)C(C(C)C)C(=O)OC3C)c3nc(-c4ccccc4)c(=O)oc3c1C)N2 (centres undefined),TGI,A498 renal,2.73 nM
same,TGI,A549 NSCLC,> 100000 nM
same,TGI,ACHN renal,801 nM
same,TGI,BT-549 breast,22.4 nM
same,TGI,CAKI-1 renal,> 100000 nM
same,TGI,CCRF-CEM leukemia,697 nM
same,TGI,COLO 205 colon,29.5 nM
same,TGI,EKVX NSCLC,94.4 nM and 31.6 nM
same,TGI,HCC-2998 colon,4.28 nM
same,GI50,HCT-15 colon,15.9 nM
same,TGI,HCT-15 colon,646 nM and 318 nM
same,TGI,HL-60(TB) leukemia,557 nM
same,TGI,HOP-62 NSCLC,2.23 nM
same,TGI,HOP-92 NSCLC,156 nM and 74.1 nM
same,TGI,HS 578T breast,5.48 nM
same,TGI,IGROV1 ovarian,13300 nM
same,TGI,KM12 colon,3.17 nM
same,TGI,MALME-3M melanoma,195 nM and 23.9 nM
same,TGI,MCF7 breast,11.6 nM
same,TGI,MDA-MB-231 breast,221 nM and 129 nM
same,TGI,MDA-MB-435,19.3 nM
same,TGI,MDA-N,23.6 nM
same,TGI,MOLT-4 leukemia,31.4 nM
same,TGI,NCI-H226 lung,5.07 nM
same,TGI,NCI-H23 lung,91.9 nM
same,TGI,NCI-H522 lung,34.2 nM
same,GI50,NCI/ADR-RES ovarian,85.6 nM
same,TGI,NCI/ADR-RES ovarian,2590 nM and 2370 nM
same,TGI,OVCAR-5 ovarian,9.18 nM
same,TGI,OVCAR-8 ovarian,27.3 nM
same,TGI,PC-3 prostate,544 nM and 129 nM
same,TGI,RPMI-8226 leukemia,44.2 nM
same,TGI,RXF 393 renal,9.11 nM
same,TGI,SF-295 CNS,120 nM
same,TGI,SF-539 CNS,2.64 nM
same,TGI,SK-MEL-2 melanoma,2.78 nM
same,TGI,SK-MEL-28 melanoma,13.9 nM
same,TGI,SK-MEL-5 melanoma,14.9 nM
same,TGI,SK-OV-3 ovarian,16100 nM
same,TGI,SN12C renal,44.2 nM and 312 nM
same,TGI,SNB-19 CNS,21400 nM
same,TGI,SNB-75 CNS,13.2 nM
same,TGI,SW-620 colon,12000 nM
same,TGI,T-47D breast,168 nM
same,GI50,TK-10 renal,13 nM
same,TGI,TK-10 renal,11400 nM
same,TGI,UACC-257 melanoma,122 nM
same,TGI,UO-31 renal,194 nM and 122 nM
O=C(c1ccccc1)c1ccc(N2C(=O)/C(=C/c3cccc(Oc4ccccc4)c3)N=C2c2ccccc2)c(N2C(=O)/C(=C/c3cccc(Oc4ccccc4)c3)N=C2c2ccccc2)c1,TGI,786-0 renal,> 100000 nM
same,TGI,A498 renal,> 100000 nM
same,TGI,A549 NSCLC,> 100000 nM
same,TGI,ACHN renal,> 100000 nM
same,TGI,BT-549 breast,> 100000 nM
same,TGI,CAKI-1 renal,> 100000 nM
same,TGI,CCRF-CEM leukemia,> 100000 nM
same,TGI,COLO 205 colon,37100 nM
same,TGI,DU-145 prostate,> 100000 nM
same,TGI,EKVX NSCLC,> 100000 nM
same,TGI,HCC-2998 colon,48800 nM
same,TGI,HCT-116 colon,> 100000 nM
same,TGI,HCT-15 colon,> 100000 nM
same,TGI,HL-60(TB) leukemia,35900 nM
same,TGI,HOP-62 NSCLC,> 100000 nM
same,TGI,HOP-92 NSCLC,> 100000 nM
same,TGI,HS 578T breast,88500 nM
same,TGI,HT29 colon,> 100000 nM
same,TGI,IGROV1 ovarian,> 100000 nM
same,TGI,K-562 leukemia,> 100000 nM
same,TGI,KM12 colon,> 100000 nM
same,TGI,LOX IMVI melanoma,> 100000 nM
same,TGI,M14 melanoma,> 100000 nM
same,TGI,MALME-3M melanoma,> 100000 nM
same,TGI,MCF7 breast,94300 nM
same,TGI,MDA-MB-231 breast,> 100000 nM
same,TGI,MDA-MB-435,31500 nM
same,TGI,MDA-N,69000 nM
same,TGI,MOLT-4 leukemia,> 100000 nM
same,TGI,NCI-H23 lung,> 100000 nM
same,TGI,NCI-H460 lung,80400 nM
same,TGI,NCI-H522 lung,51000 nM
same,TGI,NCI/ADR-RES ovarian,69100 nM
same,TGI,OVCAR-3 ovarian,69800 nM
same,TGI,OVCAR-4 ovarian,> 100000 nM
same,TGI,OVCAR-5 ovarian,> 100000 nM
same,TGI,OVCAR-8 ovarian,> 100000 nM
same,TGI,PC-3 prostate,> 100000 nM
same,TGI,RPMI-8226 leukemia,96400 nM
same,TGI,RXF 393 renal,> 100000 nM
same,TGI,SF-268 CNS,> 100000 nM
same,TGI,SF-295 CNS,> 100000 nM
same,TGI,SK-MEL-2 melanoma,71200 nM
same,TGI,SK-MEL-28 melanoma,> 100000 nM
same,TGI,SK-MEL-5 melanoma,30700 nM
same,TGI,SK-OV-3 ovarian,> 100000 nM
same,TGI,SN12C renal,> 100000 nM
same,TGI,SNB-19 CNS,> 100000 nM
same,TGI,SNB-75 CNS,> 100000 nM
same,TGI,SW-620 colon,> 100000 nM
same,TGI,T-47D breast,> 100000 nM
same,TGI,TK-10 renal,79400 nM
same,TGI,U251 CNS,> 100000 nM
same,TGI,UACC-257 melanoma,71700 nM
same,TGI,UACC-62 melanoma,24500 nM
same,TGI,UO-31 renal,> 100000 nM
